Measurements: the NIST ThermoML archive (doi:10.1016/j.tca.2012.01.024)
Numbers after ± are expanded uncertainties.

Test: excess molar enthalpy (molar enthalpy of mixing); xn = mol fraction of the nth substance listed
Conditions: 1273.2 K, 101 kPa, Liquid, Calvet calorimetry

Compound: [Ni] [nickel] + [Sn]
- excess molar enthalpy (x1 = 0.213): -2.29 ± 0.0232 kcal/mol

Compound: [Ni] [nickel] + [Sb]
- excess molar enthalpy (x1 = 0.2109): -2.58 ± 0.0263 kcal/mol

Compound: [Sb] [antimony] + [Sn]
- excess molar enthalpy (x1 = 0.2665): -0.257 ± 0.00287 kcal/mol
- excess molar enthalpy (x1 = 0.4886): -0.315 ± 0.00335 kcal/mol
- excess molar enthalpy (x1 = 0.7372): -0.233 ± 0.00263 kcal/mol
